From US12274703B2, “Compositions and methods of treatment for neurological disorders comprising a dementia” (Gliapharm SA, priority 2017, dated 2025)

What was measured:
primary astrocytes = assay: Intracellular glycogen quantification, Example 2; type: cell-based, mouse; settings: 10 μM, 3 h (GP-0157: 0.1, 1, 10 μM)
Protocol: Primary cultures of cerebrocortical astrocytes were obtained from 1 to 2-day-old OF1 mouse pups (Charles River). Briefly, cortices were isolated and minced in small pieces under a dissecting microscope. The cells were incubated for 30 min at 37° C. in a solution containing 20 U/ml papain, 1 mM L-cysteine and 10 kU/ml DNase I. After dissociation, papain activity was stopped by the addition of fetal calf serum (FCS). Single-cell suspension was then obtained by mechanical dissociation, which consisted in cells trituration in a DMEM D7777 medium supplemented with 44 mm NaHCO3, 10 ml/L antibiotic/antimycotic solution and 10% FCS. The cells were seeded at an average density of ˜10,000 cells/cm2 on poly-D-lysine coated 96- or 12-well culture plates, depending on their use, and grown in DMEM D7777 medium supplemented with 44 mm NaHCO3, 10 ml/L antibiotic/antimycotic solution and 10% FCS at 37° C. in a humidified atmosphere containing 5% CO2/95% air. Culture medium was renewed twice a week. Cells were stimulated and harvested between DIV14 and DIV17, when confluence and cell growth were optimal.
Astrocytes grown on 12-well plates were used for intracellular glycogen quantifications. Cells were stimulated with Vehicle (DMSO), with compounds of the invention (10 μM), or with a positive control for 180 min, at 37° C. 5% CO2/95% air in D5030 medium complemented with 5 mM D-glucose and 44 mM sodium bicarbonate (pH 7.2). […] At the end of the stimulation, medium was removed and replaced with 600 μl of 30 mM Tris HCl, and stored at −20° C.
First, the amount of proteins in each sample was quantified to assess whether harvested astrocytes from primary cell cultures yielded enough and equivalent amounts of proteins on each replicates. Proteins were quantified using the micro BCA Protein Assay kit (Thermo Scientific), according to manufacturer's instructions. Next, intracellular glycogen concentrations were quantified using a 250 μl-aliquot of the same stimulated, thawed, and sonicated cell lysate. After an incubation period of 30 min at 90° C. and 400 rpm, 28 μl of a 0.1M acetic acid/sodium acetate buffer (pH 4.6) was added to each lysate aliquots, which were then separated in two. Each split aliquots received either 5 μl of amyloglucosidase or H2O, and incubated for 120 min at 37° C. After centrifugation at 16,000 G for 5 min, 20 μl of supernatant were placed in a 96-well plate, to which 150 μl of a mix containing 0.67 mM ATP, 0.67 mM NADP, 1.8% hexokinase/glucose-6-phosphate dehydrogenase in a 0.1M Tris Buffer-HCl/3.3 mM magnesium (pH 8.1) buffer was added. Fluorescence intensity (340 nm excitation/440 nm emission) was measured using a Safire 2 spectrophotometer. Glucose concentrations were assessed relative to a glucose standard curve, and glycogen concentrations were calculated by subtracting glucose values of samples that had received amyloglucosidase (i.e. that had degraded their glycogen stores) to samples that had not. Intracellular levels of glycogen, which is the main source of glucose storage in the brain, were analyzed in primary astrocytes after treatment with compounds of interest (10 μM, 3 h) (FIG. 5B), and compound GP-0157 (0.1, 1, 10 μM, 3 h) (FIG. 18).

astrocytes = assay: Intracellular glycogen quantification; type: cell-based, mouse; settings: CDC54K hits; 10 μM, 3 h
[1] = system: cerebral extracellular lactate; assay: In vivo pharmacodynamics - lactate biosensors; design: species or system mouse; settings: 100 mg/kg per os; AUC ratio vs vehicle
Protocol: Extracellular levels of lactate were monitored in vivo using lactate biosensors (Pinnacle Technology), according to the manufacturer's instructions. Cannulae were surgically implanted in mice cerebral motor cortex areas M1/M2 (coordinates: +1.94 mm (to bregma), lateral −1.4 mm (to mideline), ventral −1.0 mm (to dura)) 5-7 days before administration of the compounds. Drugs were administered per os as previously described, and cerebral levels of extracellular lactate were dynamically recorded for 6 hours. Mice were administered vehicle alone first, followed 3 hours later by vehicle or drug (10 or 100 mg/kg). Area Under the Curve (AUC) quantifying the fluctuations of extracellular lactate concentrations for each of the compound tested was calculated using Graphad Prism and the ratio of AUC after drug over Vehicle administration was calculated. Groups of 8 male mice were used for each condition.
To measure biological effect of lead molecules in vivo in the brain, lactate levels were quantified after administration of the drug by using lactate biosensors implanted in the cortex of freely moving mice.

Row | SMILES | Mobilization of intracellular glycogen (primary astrocytes) | Glycogen (statistical significance of glycogen degradation) (astrocytes) | Cerebral lactate [1]
1 | Cc1ccccc1NC(=O)C1CCCN(c2ncnc3oc(C)c(C)c23)C1 (stereo not shown) [F228-0422] | significantly enhance |  | 
2 | COc1ccccc1[N+]1=C2CCCCCN2C(O)(c2ccc(C)cc2)C1 (stereo not shown) [K404-0834] | significantly enhance |  | 
3 | CCc1nc(-c2csc(S(=O)(=O)NCc3ccc4c(c3)OCO4)c2)no1 [L287-0468] | significantly enhance |  | 
4 | CCn1nccc1-c1csc(S(=O)(=O)Nc2ccc(Cl)cc2F)c1 [L924-1031] | significantly enhance |  | 
5 | CC(=O)N1CCc2sc(S(=O)(=O)N3CCN(c4ccccc4C)CC3)cc2C1 [P025-0159] | significantly enhance | ns | Significant increase
6 | COc1ccc(Nc2nc(N3CCOCC3)c3ccccc3n2)cc1.Cl [T0508-5190] | significantly enhance |  | 
7 | c1ccc2c(c1)CCN(c1ncnc3sccc13)C2 [T0517-8250] | significantly enhance | ns | 
8 | N#Cc1ccc(C(=O)N2CCC(Nc3ncnc4c3CCC4)C2)cc1 (stereo not shown) [T636-2387] | significantly enhance | ns | Significant increase
9 | COc1cc(C)c(Cl)cc1S(=O)(=O)NCc1ccncc1 [T5580243] |  | ns | Significant increase
10 | O=C1CCCN1c1ccc(S(=O)(=O)Nc2cccc(/C=C/c3ccccn3)c2)cc1 [T5644989] | significantly enhance |  | 
11 | O=S(=O)(Nc1cc(F)cc(F)c1)c1ccc2ccccc2c1 [T5884038] | significantly enhance |  | 
12 | Cc1nc2ccc(NS(=O)(=O)c3cccc(F)c3)cc2s1 [T6937001] | significantly enhance | ns | 
